# From patent US20240294499A1, “TARGETED PROTEIN DEGRADATION USING BIFUNCTIONAL COMPOUNDS THAT BIND UBIQUITIN LIGASE AND TARGET MCL-1 PROTEIN” (Captor Therapeutics S.A., priority 2021, published 2024)
# What was measured:
# iCELL Cardiomyocytes = assay: Cardiac safety: caspase 3 and 7 activation (Caspase-Glo 3/7) in iCELL Cardiomyocytes; type: cell-based; conditions: 1.2 uM, 24 hours incubation, vs DMSO
# Source text: The effect of various compounds of the invention and a reference compound AZD5991 on cardiac safety was investigated by the evaluation of caspase 3 and 7 activation using Caspase-Glo 3/7 Assay (Promega; G8092) in iCELL™ Cardiomyocytes from FUJIFILM Cellular Dynamics (Catalog number: 11713). In the Caspase-Glo® 3/7 Assay, the luminescence (measured as Relative Luciferase Units, RLU) is proportional to the amount of caspase activity present in each sample.
# The assay is initiated by thawing and seeding iCell® Cardiomyocytes as specified in the User Guide. After 48 hours, the cells are washed to remove unattached cells and debris and immediately treated with compounds or DMSO diluted in the maintenance medium (FCDI; cat: M1003). Compound concentrations used in this assay: 7 points 1/3 dilution curve starting at 100 uM. After 24 hours of incubation with compounds, caspase activity is measured by the addition of the Caspase-Glo® 3/7 Reagent followed by the luminescence measurement.
# The analysis of the results is performed by calculation of the fold change in caspase 3/7 activity at a given compound concentration. Fold change is calculated with the formula: […]
# where: • RLU Xi is the Relative Luciferase Units of sample I; • RLU BG is the Background Relative Luciferase Units; • RLU C is the Relative Luciferase Units of Control (DMSO).
# The experiments were performed in technical duplicates.
# [1] = tested on: hiPSC-CM (iCELL Cardiomyocytes); assay: Cardiac safety: hiPSC-CM cell viability assay (CTG); type: cell-based, human; conditions: viability, CTG assay, treatment until day 14
# Source text: The effect of various compounds of the invention and a reference compounds AZD5991 and MIK665 on cardiac safety was investigated by the evaluation of viability with CTG assay (Promega; cat #G7572) in iCELL™ Cardiomyocytes from FUJIFILM Cellular Dynamics (Catalog number: 11713).
# Cells were thawed, counted using an automated cell counter (TC20, Bio-Rad) and seeded in 96 well plates (Greiner-BioOne; 655098) previously coated with 0.1% gelatin (Sigma-Aldrich; G1890) using Plating Medium (#M1001) following the instructions of the iCELL cardiomyocytes User Guide. Forty ml of Plating Medium was used to equally distribute the cells in four 96 well plates. Cells were then placed in the incubator at 37° C., 5% CO2 and left undisturbed for 48 hours. Compounds were serially diluted in DMSO and then further diluted to final assay concentration using maintenance medium (#M1003). Final DMSO concentration was 0.5%. Forty eight hours after plating, non-adherent cells and debris were washed as described in the User Guide. Plating medium was then replaced with maintenance medium containing diluted compounds or DMSO (as control). Medium was then changed every 2 days with fresh medium containing compounds or DMSO until the end of the treatment. On day 14, only medium without compounds was used immediately before the CTG assay. Luminescence signal was measured using a CLARIOstar Plus Multi-Mode Microplate Reader (574-590 nm).
# [2] = tested on: iPSC-derived cardiomyocytes (iPSC-CMs); assay: caspase 3/7 activity in iPSC-derived cardiomyocytes; type: cell-based; conditions: 100 μM, FIG. 5
compound,measurement,setting,value
"Cc1c2c(nn1C)CSCc1cc(n(C)n1)CSc1cc(c3ccccc3c1)OCCCc1c(C(=O)O)n(C)c3c-2c(Cl)ccc13 [AZD5991, reference compound]",Fold change at 1.2 uM (caspase 3/7 activity in cardiomyocytes),iCELL Cardiomyocytes,2.9 ± 0.5
same,IC50,"[1]; Homo sapiens, Cardiomyocyte, 336 h, read-out: Average pIC50 by molecule hiPSC-CM (converted)",631 nM
Cc1c2c(nn1C)CSCc1cc(n(C)n1)CSc1cc(c3ccccc3c1)OCCCc1c(C(=O)O)n(C)c3c-2c(Cl)ccc13 [AZD-5991],"cell death in iPSC-CMs (caspase 3/7 assay, concentration point not displayed)",[2],excessive cell death
MIK665 [reference compound],Average pIC50 by molecule hiPSC-CM,[1],6.9
